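96-well plates; 48 h exposure; 5 concentrations. Endpoints by linear interpolation between flanking doses. Not reached: highest tested concentration assigned. GI50 marks 50% less growth.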 Active and inactive are the calls of the source. No stated cut-off is given here; in the data, active = GI50 up to about 1.1 µM and inactive = higher.
Experiments:
Test in all cases: NCI anticancer screen, dose series, 48 h
ACHN = system: ACHN
COLO 205 = system: COLO 205
DU-145 = system: DU-145
EKVX = system: EKVX
HT-29 = system: HT-29
Hs-578T = system: Hs-578T
K562 = system: K562
Malme-3M = system: Malme-3M
NCI-H23 = system: NCI-H23
NCI-H460 = system: NCI-H460
RPMI-8226 = system: RPMI-8226
RXF 393 = system: RXF 393
SF-268 = system: SF-268
SK-MEL-2 = system: SK-MEL-2
SN12C = system: SN12C
SR = system: SR
TK-10 = system: TK-10
UACC-257 = system: UACC-257
SNB-19 = system: SNB-19
UACC-62 = system: UACC-62

Measured: GI50

COC(=O)C1(O)c2ccccc2N=C2C(=O)c3ccccc3N21 (configuration not stated) [METHYLISATOID]
inactive: ACHN > 100 µM | COLO 205 > 100 µM | DU-145 > 100 µM | EKVX > 100 µM | HT-29 > 100 µM | Hs-578T > 100 µM | K562 > 100 µM | Malme-3M 51.8 µM | NCI-H23 > 100 µM | NCI-H460 > 100 µM | RPMI-8226 > 100 µM | RXF 393 > 100 µM | SF-268 > 100 µM | SK-MEL-2 > 100 µM | SN12C > 100 µM | SR > 100 µM | TK-10 > 100 µM | UACC-257 23.8 µM

NS(=O)(=O)c1ccc(NCc2cccc3c(=O)c4ccc(Cl)cc4oc23)cc1
inactive: ACHN 28.4 µM | COLO 205 55.1 µM | DU-145 30.3 µM | EKVX > 33.8 µM | HT-29 31.4 µM | Hs-578T 20 µM | K562 12.5 µM | Malme-3M 12.3 µM | NCI-H23 31.5 µM | RPMI-8226 24 µM | RXF 393 27.1 µM | SF-268 19.5 µM | SK-MEL-2 68.7 µM | SN12C > 56.6 µM | SNB-19 8.07 µM | SR 4.68 µM | TK-10 > 72.9 µM | UACC-257 60.4 µM | UACC-62 23.1 µM

S=C(c1c[nH]c2ccccc12)N1CCCCC1
inactive: ACHN > 100 µM | COLO 205 > 100 µM | DU-145 > 100 µM | EKVX 85.9 µM | HT-29 > 100 µM | Hs-578T > 100 µM | K562 72.4 µM | Malme-3M > 100 µM | NCI-H23 > 100 µM | NCI-H460 > 100 µM | RPMI-8226 36.9 µM | RXF 393 62.5 µM | SF-268 > 100 µM | SK-MEL-2 > 100 µM | SN12C > 100 µM | SNB-19 > 100 µM | SR > 100 µM | TK-10 > 100 µM | UACC-257 > 100 µM | UACC-62 > 100 µM

Nc1cc(C(=O)O)nc(O)n1
inactive: ACHN > 100 µM | COLO 205 > 100 µM | DU-145 > 100 µM | EKVX > 100 µM | HT-29 > 100 µM | Hs-578T > 100 µM | K562 > 100 µM | Malme-3M > 100 µM | NCI-H23 > 100 µM | NCI-H460 > 100 µM | RPMI-8226 > 100 µM | RXF 393 > 100 µM | SF-268 > 100 µM | SK-MEL-2 > 100 µM | SN12C > 100 µM | SNB-19 > 100 µM | SR > 100 µM | TK-10 > 100 µM | UACC-257 > 100 µM | UACC-62 > 100 µM

NC1=Nc2ccccc2Sc2nccn21
inactive: ACHN 30 µM | COLO 205 15.4 µM | DU-145 37.7 µM | EKVX 27.7 µM | HT-29 23 µM | Hs-578T 25.3 µM | K562 19.6 µM | Malme-3M 17.2 µM | NCI-H23 23.9 µM | NCI-H460 31 µM | RPMI-8226 18.2 µM | RXF 393 25.8 µM | SF-268 30.2 µM | SK-MEL-2 32.7 µM | SN12C 36.3 µM | SNB-19 40.3 µM | SR 26.4 µM | TK-10 30.6 µM | UACC-257 31.8 µM | UACC-62 28.2 µM

COC(=O)c1c(O)ccc2c1c1c(n2Cc2ccc(Cl)cc2Cl)C(=O)c2ccccc2C1
inactive: COLO 205 45.7 µM | DU-145 > 100 µM | HT-29 79.6 µM | Hs-578T 93.8 µM | K562 52.1 µM | Malme-3M 97.7 µM | NCI-H23 60 µM | NCI-H460 33.3 µM | RPMI-8226 19.7 µM | RXF 393 31 µM | SF-268 32.5 µM | SK-MEL-2 60.4 µM | SN12C 23.1 µM | SNB-19 61.7 µM | SR 36.3 µM | TK-10 > 100 µM | UACC-257 42.2 µM | UACC-62 > 100 µM

CC(=O)CCC[C@@H](C)[C@@H]1O[C@H]([C@@]2(C)CCC(=O)O2)C[C@H]2C(CSc3ccccc3)C(=O)O[C@@H]12 (some centres not stated)
inactive: ACHN 14.3 µM | COLO 205 15.6 µM | DU-145 14.6 µM | EKVX 9.98 µM | HT-29 17 µM | Hs-578T 12.4 µM | K562 6.18 µM | Malme-3M 8.09 µM | NCI-H23 17.9 µM | NCI-H460 20.7 µM | RPMI-8226 13.3 µM | RXF 393 4.16 µM | SF-268 20 µM | SK-MEL-2 17.3 µM | SN12C 14.9 µM | SNB-19 33.4 µM | SR 6.79 µM | TK-10 12.6 µM | UACC-257 13.4 µM | UACC-62 14.5 µM

NS(=O)(=O)c1ccc(NC(=O)c2cccc3cc4ccccc4nc23)cc1
inactive: ACHN 6.64 µM | COLO 205 12.2 µM | DU-145 > 100 µM | EKVX > 100 µM | HT-29 8.3 µM | Hs-578T 8.53 µM | K562 30.1 µM | Malme-3M 12.2 µM | NCI-H23 20.5 µM | NCI-H460 5.02 µM | RPMI-8226 8.32 µM | RXF 393 17.7 µM | SF-268 56.9 µM | SK-MEL-2 > 100 µM | SN12C 20.8 µM | SNB-19 28.3 µM | SR 4.58 µM | TK-10 28.2 µM | UACC-257 71.4 µM | UACC-62 66.5 µM

CC(C)CC(N)C(=O)Nc1ccc2ccccc2c1 (configuration not stated)
inactive: ACHN > 100 µM | COLO 205 > 100 µM | DU-145 > 100 µM | EKVX > 100 µM | HT-29 > 100 µM | Hs-578T > 100 µM | K562 > 100 µM | Malme-3M > 100 µM | NCI-H23 > 100 µM | RPMI-8226 > 100 µM | RXF 393 > 100 µM | SF-268 > 100 µM | SK-MEL-2 > 100 µM | SN12C > 100 µM | SNB-19 > 100 µM | SR > 100 µM | TK-10 > 100 µM | UACC-257 > 100 µM | UACC-62 > 100 µM

O=c1[nH]nc(-c2ccccc2)n1/N=C/c1cccnc1
inactive: ACHN 63.7 µM | DU-145 78.5 µM | EKVX 71.1 µM | HT-29 93.1 µM | Hs-578T 37.5 µM | K562 40.5 µM | Malme-3M > 100 µM | NCI-H23 > 100 µM | NCI-H460 43.8 µM | RPMI-8226 74 µM | RXF 393 34.4 µM | SF-268 > 100 µM | SN12C 65 µM | SNB-19 > 100 µM | SR 52.7 µM | TK-10 > 100 µM | UACC-257 > 100 µM

O=C(O)c1ccc(/C=N\N(CCO)C2=NCCN2)cc1
inactive: ACHN > 100 µM | COLO 205 > 100 µM | DU-145 > 100 µM | EKVX > 100 µM | HT-29 > 100 µM | Hs-578T > 100 µM | K562 > 100 µM | Malme-3M > 100 µM | NCI-H23 > 100 µM | NCI-H460 > 100 µM | RPMI-8226 > 100 µM | RXF 393 > 100 µM | SF-268 > 100 µM | SK-MEL-2 > 100 µM | SN12C > 100 µM | SNB-19 > 100 µM | SR > 100 µM | TK-10 > 100 µM | UACC-62 > 100 µM

COc1ccccc1N1C(=O)C2C3c4ccccc4C(OC(C)=O)(c4ccccc43)C2C1=O (configuration not stated)
inactive: ACHN > 100 µM | COLO 205 > 100 µM | DU-145 > 100 µM | EKVX > 100 µM | HT-29 > 100 µM | Hs-578T 14.8 µM | K562 > 100 µM | Malme-3M 33.8 µM | NCI-H23 > 100 µM | NCI-H460 > 100 µM | RPMI-8226 > 100 µM | RXF 393 > 100 µM | SF-268 30.8 µM | SN12C > 100 µM | SNB-19 17.1 µM | SR > 100 µM | TK-10 > 100 µM | UACC-257 > 100 µM | UACC-62 > 100 µM

OCN(CO)c1ccc2c(c1)Cc1cc(F)ccc1-2
inactive: ACHN 17.6 µM | COLO 205 12.4 µM | DU-145 23.2 µM | EKVX 14.7 µM | HT-29 14.8 µM | Hs-578T 12 µM | K562 20.9 µM | Malme-3M 18.1 µM | NCI-H23 33.3 µM | NCI-H460 24.7 µM | RXF 393 24 µM | SF-268 23.8 µM | SK-MEL-2 21 µM | SN12C 18.2 µM | SNB-19 17.9 µM | SR 22.6 µM | TK-10 18.7 µM | UACC-257 18.7 µM | UACC-62 16.6 µM

N#C/C(=C\c1ccc(Cl)cc1)c1nc(-c2cc3ccccc3oc2=O)cs1
inactive: ACHN 38.2 µM | COLO 205 > 100 µM | DU-145 48.5 µM | EKVX > 100 µM | HT-29 > 100 µM | Hs-578T 8.87 µM | K562 > 100 µM | Malme-3M 41.7 µM | NCI-H460 42.6 µM | RPMI-8226 > 100 µM | RXF 393 83 µM | SF-268 34.8 µM | SK-MEL-2 > 100 µM | SN12C 70.3 µM | SNB-19 43.6 µM | SR > 100 µM | TK-10 26.9 µM | UACC-257 47.6 µM | UACC-62 28.9 µM
